The values below come from ChEMBL document CHEMBL4339242, “Pyranoflavanones and Pyranochalcones from the Fruits of Amomum tsao-ko” (J Nat Prod, 2019).

As usually defined, the IC50 is the concentration at which inhibition is half-maximal. Lower therefore signals higher potency.

In data set [1] the test system is RAW264.7. The data set can be described thus: Inhibition of lipopolysaccharide-induced nitric oxide production in mouse RAW264.7 cells by Griess reagent based assay. In kind it is functional, cell-based. (Griess reagent forms a coloured azo dye with nitrite.)
Data set [2] has as its system RAW264.7. The data set can be described thus: Toxicity in lipopolysaccharide-induced mouse RAW264.7 cells by MTT-based colorimetric assay. In kind it is cell-based.

In turn, `COc1cc2c(c3c1C(=O)C[C@H](c1ccccc1)O3)C=CC(C)(CCC=C(C)C)O2` (stereo partly specified) returned an IC50 with RAW264.7 [1] of 10.6 µM. In the data set with RAW264.7 [2], the Activity result is given as “Non-Toxic”.
Consider `COc1cc2c(c3c1C(=O)C[C@H](c1ccc(O)cc1)O3)C=CC(C)(CCC=C(C)C)O2` (stereo partly specified), for which the IC50 in the data set on RAW264.7 [1] amounted to 16.2 µM. The Activity result with RAW264.7 [2] is on record as “Non-Toxic”.
On the same counts, the results for `COc1cc2c(c3c1C(=O)C[C@H](c1ccc(O)cc1)O3)C=CC(C)(CC/C=C(\C)CCC=C(C)C)O2` (stereo partly specified) are 41.5 µM and “Non-Toxic”.
The corresponding values for `COc1cc2c(c3c1C(=O)C[C@H](c1ccccc1)O3)C=CC(C)(CC/C=C(\C)CCC=C(C)C)O2` (stereo partly specified) are 26.1 µM and “Non-Toxic”.
On the same counts, the results for `COc1cc2c(c3c1C(=O)C[C@@H](c1ccc(O)cc1)O3)C=CC(C)(CC/C=C(\C)CCC=C(C)C)O2` (stereo partly specified) are 39.2 µM and “Non-Toxic”.
As to `COc1cc2c(c(O)c1C(=O)/C=C/c1ccc(O)cc1)C=CC(C)(CC/C=C(\C)CCC=C(C)C)O2` (stereo unspecified), in the data set on RAW264.7 [1], half-maximal inhibition (IC50) was put at 30.6 µM. Besides, the Activity entry in the data set on RAW264.7 [2] is on record as “Non-Toxic”.
On the same counts, the results for `COc1cc2c(c3c1C(=O)C[C@@H](c1ccc(O)cc1)O3)C=CC(C)(CCC=C(C)C)O2` (stereo partly specified) are 14 µM and “Non-Toxic”.
Regarding `COc1cc2c(c3c1C(=O)C[C@@H](c1ccccc1)O3)C=CC(C)(CCC=C(C)C)O2` (stereo partly specified), half-maximal inhibition in the data set on RAW264.7 [1] (IC50) required 13.5 µM. For the same molecule, in the data set with RAW264.7 [2], the Activity entry is “Non-Toxic”.
The corresponding values for `COc1cc2c(c(O)c1C(=O)/C=C/c1ccccc1)C=CC(C)(CC/C=C(\C)CCC=C(C)C)O2` (stereo unspecified) are 13.5 µM and “Non-Toxic”.
On the same counts, the results for `COc1cc2c(c3c1C(=O)C[C@@H](c1ccccc1)O3)C=CC(C)(CC/C=C(\C)CCC=C(C)C)O2` (stereo partly specified) are 28.7 µM and “Non-Toxic”.
Take `N=C(N)NN` [PIMAGEDINE]: inhibition in the data set with RAW264.7 [1] was half-maximal at 21.7 µM (IC50).
